Test results taken from patent publication US20230365592A1 (Agios Pharmaceuticals, Inc., priority 2022, published 2023).

target: T1, human PAH with the R408W mutation (Homo sapiens, UniProt P00439, R408W); experiment: Cell Based Phenylalanine Flux Assay; conditions: A375 cells expressing R408W PAH; 24 hrs with compound, then 20 µM sepiapterin and 800 µM 13C9,15N-Phenylalanine for 4 hours; 13C-Tyrosine by LC-MS; average where tested multiple times; read-out: AC50;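 further: after compound treatment, cells received sepiapterin plus isotope-labelled Phenylalanine for 4 hours, then labelled Tyrosine in the medium was quantified, 10-point 2-fold dilution series run in duplicate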
T1 construct: expressed in transfected cells
T1 sequence (P00439 1-452 R408W): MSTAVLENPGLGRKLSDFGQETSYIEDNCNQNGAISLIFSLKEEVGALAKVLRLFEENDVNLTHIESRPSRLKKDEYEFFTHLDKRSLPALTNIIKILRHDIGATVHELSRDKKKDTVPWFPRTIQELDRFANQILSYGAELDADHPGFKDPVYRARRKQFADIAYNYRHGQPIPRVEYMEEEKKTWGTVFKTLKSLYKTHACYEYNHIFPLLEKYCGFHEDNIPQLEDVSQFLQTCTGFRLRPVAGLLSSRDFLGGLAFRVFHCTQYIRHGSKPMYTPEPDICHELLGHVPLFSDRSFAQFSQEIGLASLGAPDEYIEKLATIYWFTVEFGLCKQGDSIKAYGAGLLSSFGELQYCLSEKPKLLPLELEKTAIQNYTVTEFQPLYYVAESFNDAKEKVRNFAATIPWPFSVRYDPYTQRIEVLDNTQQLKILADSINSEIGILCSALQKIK

SMILES | AC50
Cc1c(C2c3nc[nH]c3CCN2C(=O)c2nnc(-c3ccn(C)n3)o2)nn2ccccc12 (centres unmarked) [listing 1 of 2 here] | > 5 µM
Cc1ccn2nc(C3c4nc[nH]c4CCN3C(=O)c3nnc(-c4ccn(C)n4)o3)cc2c1 (centres unmarked) [listing 1 of 2 here] | > 5 µM
Cc1ccn2nc(C3c4nc[nH]c4CCN3C(=O)c3nnc(-c4cnn(C)c4)o3)cc2c1 (centres unmarked) [listing 1 of 2 here] | > 5 µM
O=C(c1nnc(-c2cc[nH]n2)o1)N1CCc2[nH]cnc2C1c1cc2ccccn2n1 (centres unmarked) | > 5 µM
Cc1nc(-c2ccccn2)oc1C(=O)N1CCc2[nH]cnc2C1c1cc2ccccn2n1 (centres unmarked) | > 5 µM
Fc1cccnc1-c1nnc(N2CCc3[nH]cnc3C2c2cc3c(C4CC4)cccn3n2)o1 (centres unmarked) [listing 1 of 2 here] | > 5 µM
O=C(c1cnc(-c2cnccn2)o1)N1CCc2[nH]cnc2C1c1cc2ccccn2n1 (centres unmarked) | > 5 µM
O=C(c1cnc(-c2ccccn2)o1)N1CCc2[nH]cnc2C1c1cc2ccccn2n1 (centres unmarked) [listing 1 of 2 here] | > 5 µM
Fc1ncccc1-c1nnc(N2CCc3[nH]cnc3C2c2cc3ccccn3n2)o1 (centres unmarked) [listing 1 of 2 here] | > 5 µM
Cc1nnc(C(=O)N2CCc3[nH]cnc3C2c2cc3ccccn3n2)o1 (centres unmarked) [listing 1 of 2 here] | > 5 µM
Fc1ncccc1-c1nnc(N2CCc3[nH]cnc3C2c2cc3c(C(F)F)cccn3n2)o1 (centres unmarked) [listing 1 of 2 here] | > 5 µM
Cc1ncccc1-c1nnc(N2CCc3[nH]cnc3C2c2cc3c(C4CC4)cccn3n2)o1 (centres unmarked) | 1 to 5 µM
Fc1ncccc1-c1nnc(N2CCc3[nH]cnc3C2c2cc3c(C4CC4)cccn3n2)o1 (centres unmarked) [listing 1 of 2 here] | > 5 µM
c1cncc(-c2nnc(N3CCc4[nH]cnc4C3c3cc4c(C5CC5)cccn4n3)o2)c1 (centres unmarked) [listing 1 of 2 here] | > 5 µM
O=C(c1cn[nH]c1Cl)N1CCc2[nH]cnc2C1c1cc2ccccn2n1 (centres unmarked) [listing 1 of 2 here] | 1 to 5 µM
Cc1cccn2nc(C3c4nc[nH]c4CCN3C(=O)c3ccnn3C(F)F)cc12 (centres unmarked) | 1 to 5 µM
Cn1ccc(C(=O)N2CCc3[nH]cnc3C2c2cc3ccccn3n2)n1 (centres unmarked) | > 5 µM
Cc1cccn2nc(C3c4nc[nH]c4CCN3c3cnn(C)c3)cc12 (centres unmarked) | 1 to 5 µM
Cn1nc(N)cc1C(=O)N1CCc2[nH]cnc2C1c1cc2ccccn2n1 (centres unmarked) | > 5 µM
O=C(c1nnc(-c2cnn(CC(F)F)c2)o1)N1CCc2[nH]cnc2C1c1cc2ccccn2n1 (centres unmarked) | 1 to 5 µM
Cc1cccn2nc(C3c4nc[nH]c4CCN3C(=O)c3nnc(-c4cncn4C)o3)cc12 (centres unmarked) | 1 to 5 µM
Cc1c(C2c3nc[nH]c3CCN2C(=O)c2nnc(-c3ccn(C)n3)o2)nn2ccccc12 (centres unmarked) [listing 2 of 2 here] | 1 to 5 µM
Cc1ccn2nc(C3c4nc[nH]c4CCN3C(=O)c3nnc(-c4ccn(C)n4)o3)cc2c1 (centres unmarked) [listing 2 of 2 here] | 1 to 5 µM

SMILES | AC50
Cc1c(C2c3nc[nH]c3CCN2C(=O)c2nnc(-c3cnn(C)c3)o2)nn2ccccc12 (centres unmarked) | 1 to 5 µM
Cc1ccn2nc(C3c4nc[nH]c4CCN3C(=O)c3nnc(-c4cnn(C)c4)o3)cc2c1 (centres unmarked) [listing 2 of 2 here] | 1 to 5 µM
CC(F)(F)c1nnc(N2CCc3[nH]cnc3C2c2cc3cccc(C(F)(F)F)n3n2)o1 (centres unmarked) | 1 to 5 µM
CC(C)c1cccn2nc(C3c4nc[nH]c4CCN3c3nnc(C(C)(C)F)o3)cc12 (centres unmarked) | 1 to 5 µM
CC(C)(F)c1nnc(N2CCc3[nH]cnc3C2c2cc3c(F)cccn3n2)o1 (centres unmarked) | 1 to 5 µM
CC(C)(O)c1cc(C(=O)N2CCc3[nH]cnc3C2c2cc3ccccn3n2)no1 (centres unmarked) | > 5 µM
CC(C)(O)c1nc(C(=O)N2CCc3[nH]cnc3C2c2cc3ccccn3n2)no1 (centres unmarked) | > 5 µM
Cc1n[nH]cc1-c1nnc(C(=O)N2CCc3[nH]cnc3C2c2cc3c(C)cccn3n2)o1 (centres unmarked) | 1 to 5 µM
CC(C)c1cccn2nc(C3c4nc[nH]c4CCN3c3cnccn3)cc12 (centres unmarked) | > 5 µM
FC1(F)CC(c2nnc(N3CCc4[nH]cnc4C3c3cc4c(Cl)cccn4n3)o2)C1 (centres unmarked) | 1 to 5 µM
CC(C)(F)c1nnc(N2CCc3[nH]cnc3C2c2cc3c(Cl)cccn3n2)o1 (centres unmarked) | > 5 µM
CC(C)c1nnc(N2CCc3[nH]cnc3C2c2cc3c(C4CC4)cccn3n2)o1 (centres unmarked) | > 5 µM
CC(C)(F)c1nnc(N2CCc3[nH]cnc3C2c2cc3c(C4CC4)cccn3n2)o1 (centres unmarked) | > 5 µM
Cc1n[nH]cc1-c1nnc(C(=O)N2CCc3[nH]cnc3C2c2cc3c(F)cccn3n2)o1 (centres unmarked) | 1 to 5 µM
Cn1cncc1-c1nnc(C(=O)N2CCc3[nH]cnc3C2c2cc3c(F)cccn3n2)o1 (centres unmarked) | 1 to 5 µM
COc1cccn2nc(C3c4nc[nH]c4CCN3C(=O)c3nnc(-c4cnn(C)c4)o3)cc12 (centres unmarked) | 1 to 5 µM
COc1cccn2nc(C3c4nc[nH]c4CCN3C(=O)c3oc(C(C)(C)O)nc3C(F)F)cc12 (centres unmarked) | > 5 µM
Cc1cccn2nc(C3c4nc[nH]c4CCN3C(=O)c3oc(-c4ccccn4)nc3C(F)F)cc12 (centres unmarked) | 1 to 5 µM
Cc1c(C2c3nc[nH]c3CCN2C(=O)c2nnc(-c3ccccn3)o2)nn2ccccc12 (centres unmarked) | 1 to 5 µM
Fc1cccnc1-c1nnc(N2CCc3[nH]cnc3C2c2cc3c(C(F)F)cccn3n2)o1 (centres unmarked) | 1 to 5 µM
Fc1cccnc1-c1nnc(N2CCc3[nH]cnc3C2c2cc3c(C4CC4)cccn3n2)o1 (centres unmarked) [listing 2 of 2 here] | 1 to 5 µM
CC(C)(O)c1nnc(C(=O)N2CCc3[nH]cnc3C2c2cc3c(F)cccn3n2)o1 (centres unmarked) | 1 to 5 µM
Cc1cccn2nc(C3c4nc[nH]c4CCN3C(=O)c3cnc(C(C)(C)O)o3)cc12 (centres unmarked) | 1 to 5 µM

SMILES | AC50
Cc1cccn2nc(C3c4nc[nH]c4CCN3C(=O)c3nnc(C(C)(C)O)o3)cc12 (centres unmarked) | 1 to 5 µM
FC(F)(F)c1cccc2cc(C3c4nc[nH]c4CCN3c3nnc(-c4cnccn4)o3)nn12 (centres unmarked) | 1 to 5 µM
O=C(c1cnc(-c2ccccn2)o1)N1CCc2[nH]cnc2C1c1cc2ccccn2n1 (centres unmarked) [listing 2 of 2 here] | 1 to 5 µM
CC(C)(O)c1ncc(C(=O)N2CCc3[nH]cnc3C2c2cc3ccccn3n2)o1 (centres unmarked) | 1 to 5 µM
O=C(c1ccnn1-c1ccccn1)N1CCc2[nH]cnc2C1c1cc2ccccn2n1 (centres unmarked) | 1 to 5 µM
CC(C)(O)c1cc(C(=O)N2CCc3[nH]cnc3C2c2cc3ccccn3n2)on1 (centres unmarked) | 1 to 5 µM
O=C(c1cnn(-c2ccccn2)c1Cl)N1CCc2[nH]cnc2C1c1cc2ccccn2n1 (centres unmarked) | 1 to 5 µM
CC(C)c1nnc(N2CCc3[nH]cnc3C2c2cc3c(C(C)C)cccn3n2)o1 (centres unmarked) | > 5 µM
Fc1ncccc1-c1nnc(N2CCc3[nH]cnc3C2c2cc3c(C(F)(F)F)cccn3n2)o1 (centres unmarked) | 1 to 5 µM
Fc1ncccc1-c1nnc(N2CCc3[nH]cnc3C2c2cc3ccccn3n2)o1 (centres unmarked) [listing 2 of 2 here] | 1 to 5 µM
Fc1cccc(-c2nnc(N3CCc4[nH]cnc4C3c3cc4ccccn4n3)o2)n1 (centres unmarked) | 1 to 5 µM
Cc1nnc(C(=O)N2CCc3[nH]cnc3C2c2cc3ccccn3n2)o1 (centres unmarked) [listing 2 of 2 here] | 1 to 5 µM
O=C(C1CN(CC(F)(F)F)C1)N1CCc2[nH]cnc2C1c1cc2ccccn2n1 (centres unmarked) | > 5 µM
Fc1ncccc1-c1nnc(N2CCc3[nH]cnc3C2c2cc3c(C(F)F)cccn3n2)o1 (centres unmarked) [listing 2 of 2 here] | 1 to 5 µM
FC(F)c1cccn2nc(C3c4nc[nH]c4CCN3c3nnc(-c4cccnc4)o3)cc12 (centres unmarked) | 1 to 5 µM
c1cncc(-c2nnc(N3CCc4[nH]cnc4C3c3cc4c(C5CC5)cccn4n3)o2)c1 (centres unmarked) [listing 2 of 2 here] | 1 to 5 µM
Fc1ncccc1-c1nnc(N2CCc3[nH]cnc3C2c2cc3c(C4CC4)cccn3n2)o1 (centres unmarked) [listing 2 of 2 here] | 1 to 5 µM
O=C(c1cn[nH]c1)N1CCc2[nH]cnc2C1c1cc2ccccn2n1 (centres unmarked) | > 5 µM
O=C(c1nnc(N2CCOCC2)o1)N1CCc2[nH]cnc2C1c1cc2c(F)cccn2n1 (centres unmarked) | 1 to 5 µM
Cc1cccn2nc(C3c4nc[nH]c4CCN3C(=O)c3nnc(N4CCOCC4)o3)cc12 (centres unmarked) | 1 to 5 µM
Cn1cc(-c2nc(C(F)F)c(C(=O)N3CCc4[nH]cnc4C3c3cc4ccccn4n3)o2)cn1 (centres unmarked) | 1 to 5 µM
Cn1ccc(-c2nc(C(F)F)c(C(=O)N3CCc4[nH]cnc4C3c3cc4ccccn4n3)o2)n1 (centres unmarked) | > 5 µM
Cc1cccn2nc(C3c4nc[nH]c4CCN3C(=O)c3oc(-c4ccn(C)n4)nc3C(F)F)cc12 (centres unmarked) | 1 to 5 µM

SMILES | AC50
Cn1ccc(-c2nc(C(F)F)c(C(=O)N3CCc4[nH]cnc4C3c3cc4c(F)cccn4n3)o2)n1 (centres unmarked) | > 5 µM
COc1cccn2nc(C3c4nc[nH]c4CCN3C(=O)c3ocnc3C(F)F)cc12 (centres unmarked) | 1 to 5 µM
Cc1cccn2nc(C3c4nc[nH]c4CCN3C(=O)c3ocnc3C(F)F)cc12 (centres unmarked) | 1 to 5 µM
Cc1ccc2cc(C3c4nc[nH]c4CCN3C(=O)c3ocnc3C(F)F)nn2c1 (centres unmarked) | 1 to 5 µM
CCn1cnnc1C(=O)N1CCc2[nH]cnc2C1c1cc2ccccn2n1 (centres unmarked) | 1 to 5 µM
O=C(c1ocnc1C(F)F)N1CCc2[nH]cnc2C1c1cc2c(Cl)cccn2n1 (centres unmarked) | 1 to 5 µM
Cc1nc(C(=O)N2CCc3[nH]cnc3C2c2cc3c(F)cccn3n2)n(C)n1 (centres unmarked) | 1 to 5 µM
NC(=O)c1ncoc1C(=O)N1CCc2[nH]cnc2C1c1cc2ccccn2n1 (centres unmarked) | 1 to 5 µM
O=C(c1ccn[nH]1)N1CCc2[nH]cnc2C1c1cc2ccccn2n1 (centres unmarked) | > 5 µM
O=C(c1cnco1)N1CCc2[nH]cnc2C1c1cc2ccccn2n1 (centres unmarked) | 1 to 5 µM
O=C(c1cnn(CC(F)(F)F)c1Cl)N1CCc2[nH]cnc2C1c1cc2ccccn2n1 (centres unmarked) | 1 to 5 µM
O=C(c1cn[nH]c1Cl)N1CCc2[nH]cnc2C1c1cc2ccccn2n1 (centres unmarked) [listing 2 of 2 here] | 1 to 5 µM
Fc1ccc(-c2nnc(N3CCc4[nH]cnc4C3c3cc4ccccn4n3)o2)nc1 (centres unmarked) | 1 to 5 µM
Cc1nc(C(C)O)oc1C(=O)N1CCc2[nH]cnc2C1c1cc2ccccn2n1 (centres unmarked) | 1 to 5 µM
Cc1cccn2nc(C3c4nc[nH]c4CCN3C(=O)c3oc(C(C)O)nc3C(F)F)cc12 (centres unmarked) | 1 to 5 µM
CC(O)c1nc(C(F)F)c(C(=O)N2CCc3[nH]cnc3C2c2cc3c(Cl)cccn3n2)o1 (centres unmarked) | 1 to 5 µM
Cc1nc(C(C)O)oc1C(=O)N1CCc2[nH]cnc2C1c1cc2c(F)cccn2n1 (centres unmarked) | 1 to 5 µM
Cc1cccc2cc([C@H]3c4nc[nH]c4CCN3C(=O)c3ncnn3C)nn12 (single isomer, unassigned) | > 5 µM
COc1cccn2nc([C@H]3c4nc[nH]c4CCN3C(=O)c3cc(C(C)(C)C)nn3C)cc12 (single isomer, unassigned) | > 5 µM
Cc1ccn2nc([C@@H]3c4nc[nH]c4CCN3C(=O)c3ccnn3C(F)F)cc2c1 (single isomer, unassigned) | 1 to 5 µM
